# Test results as given in patent US10940141B1, “Methods for the administration of certain VMAT2 inhibitors” (Neurocrine Biosciences, Inc., priority 2019, dated 2021).
# Tests used:
# [1] = Phase 1, open-label, single-dose PK study of valbenazine in subjects with normal renal function or severe renal impairment; format: in vivo, human; settings: for effect of severe renal impairment on AUC0-∞ / effect of severe renal impairment on Cmax: single dose valbenazine 40 mg (free base equivalent as ditosylate), fasted, severe renal impairment compared to normal renal function; for effect of renal status on protein binding: severe renal impairment vs normal renal function
# Description: (§1) This was a Phase 1, open-label, single-dose, PK study of valbenazine to assess the safety and PK of valbenazine and its metabolites in subjects with normal renal function or severe renal impairment. A total of 16 subjects (8 with severe renal impairment and 8 with normal renal function) received a single dose of valbenazine 40 mg (free base equivalent as the ditosylate salt) under fasted conditions.
# [2] = cited from earlier work
# [3] = Safety and tolerability in the Phase 1 single-dose study (TEAEs, laboratory tests, vital signs, ECG); format: in vivo, human
# Description: as §1
# [4] = valbenazine 40 mg single dose, all 16 subjects
smiles,measurement,setting,value
"COc1cc2c(cc1OC)[C@H]1C[C@@H](O)[C@H](CC(C)C)CN1CC2 [NBI-98782, (2R, 3R,11bR)-3-isobutyl-9,10-dimethoxy-1,3,4,6,7,11b-hexahydro-2H-pyrido[2,1-a]isoquinolin-2-ol]",effect of severe renal impairment on AUC0-∞,[1],no clinically meaningful effect
same,effect of severe renal impairment on Cmax,[1],no clinically meaningful effect
same,effect of renal status on protein binding,[1]; single dose valbenazine 40 mg,little effect
COc1cc2c(cc1OC)[C@H]1C[C@@H](OC(=O)[C@@H](N)C(C)(C)O)[C@H](CC(C)C)CN1CC2 [NBI-136110],effect of severe renal impairment on AUC0-∞,[1],no clinically meaningful effect
same,effect of severe renal impairment on Cmax,[1],no clinically meaningful effect
"COc1cc2c(cc1OC)[C@H]1C[C@@H](OC(=O)[C@@H](N)C(C)C)[C@H](CC(C)C)CN1CC2 [Valbenazine ditosylate, L-Valine, (2R,3R,11bR)-1,3,4,6,7,11b-hexahydro-9,10-dimethoxy-3-(2-methylpropyl)-2H-benzo[a]quinolizin-2-yl ester, 4-methylbenzenesulfonate (1:2)]",solubility in water,[2],slightly soluble
"COc1cc2c(cc1OC)[C@H]1C[C@@H](OC(=O)[C@@H](N)C(C)C)[C@H](CC(C)C)CN1CC2 [valbenazine, (S)-2-amino-3-methyl-butyric acid (2R, 3R,11bR)-3-isobutyl-9,10-dimethoxy-1,3,4,6,7,11b-hexahydro-2H-pyrido[2,1-a]isoquinolin-2-yl ester]",urine clearance in subjects with severe renal impairment compared with normal renal function,[1]; single dose valbenazine 40 mg,reduction
same,effect of severe renal impairment on AUC0-∞,[1],no clinically meaningful effect
same,effect of severe renal impairment on Cmax,[1],no clinically meaningful effect
same,effect of renal status on protein binding,[1]; single dose valbenazine 40 mg,little effect
same,treatment-related TEAE headache,[3]; normal renal function group,1 subject
same,treatment-related TEAE somnolence,[3]; normal renal function group,1 subject
same,treatment-related TEAE somnolence,[3]; severe renal impairment group,1 subject
same,treatment-related TEAE vision blurred,[3]; severe renal impairment group,1 subject
same,subjects with QTcF increase from baseline >60 msec,[3]; valbenazine 40 mg single dose,No subject
same,subjects with QTcF interval >480 msec,[3]; valbenazine 40 mg single dose,No subject
same,"subjects who experienced TEAEs, each of the renal function groups","[3]; valbenazine 40 mg single dose, 8 subjects per group (normal renal function; severe renal impairment)",2 (25.0%) subjects
same,tolerability,"[3]; valbenazine 40 mg single dose, 16 subjects (8 normal renal function, 8 severe renal impairment)",well tolerated
same,"deaths, serious or severe TEAEs, or discontinuations due to a TEAE",[3]; [4],"no deaths, serious or severe TEAEs, or discontinuations due to a TEAE"
same,"subjects who experienced TEAEs, overall",[3]; [4],4 (25.0%) subjects
same,treatment-related TEAEs reported,[3]; [4],3 subjects
same,"changes in clinical laboratory tests, vital sign measurements, weight, or ECG parameters","[3]; valbenazine 40 mg single dose, during the study",no clinically significant changes
